From patent publication EP4803511A1, “SMALL MOLECULE COMPOUND HAVING SULFONIC ACID OR SULFINIC ACID LACTONE STRUCTURE, COMPOSITION AND USE THEREOF” (Hangzhou Phecdamed Co., Ltd., priority 2023, dated 2025) come the findings set out here.

Converted amounts (≈) assume the structure as drawn.

In one series the test system is HaCaT cells. The series can be described thus: ROS content / ROS scavenging rate in HaCaT after UVB radiation (DCFH-DA). The format is cell-based, human. The note with it: content 0.0025%; HaCaT cells after UVB radiation. The text has this:
Oxidative reactions such as respiration and metabolism in organisms generate reactive free radicals. Under normal bodily conditions, free radicals have a stable scavenging system, so that the free radical content of the body is kept at a relatively low concentration. Oxidative stress (OS) refers to an imbalance between oxidation and antioxidation in the body due to endogenous and/or exogenous stimuli, resulting in excessive free radical production. Excessive free radicals produce a series of negative effects in the body, including oxidative damage to biomolecules and further causing cell death and tissue damage, etc. In organisms, almost all ROS, except for trace amounts utilized by the body, should be promptly scavenged. Medium Wave Erythema Effect Ultraviolet (UVB) (280-319 nm) radiation damage is the most important factor leading to photoaging of the skin, primarily damaging keratinocytes (HaCaT), specifically manifested as the accumulation of photoproducts, increased ROS, and exacerbated oxidative damage, etc. Over long periods of evolution, organisms have developed a complete antioxidant system, maintaining a dynamic balance between the production and elimination of free radicals. This is an adaptive mechanism of organisms, and the main members include antioxidant enzymes, antioxidants, and proteins that separate transition metals, all of which can specifically limit oxidative damage to the body. Therefore, the antioxidant efficacy of a test compound can be evaluated by detecting the ROS scavenging rate in keratinocytes after UVB radiation.
• 1) Cell inoculation: HaCaT cells were inoculated into a 96-well plate at 2 × 10^4/well, cultured in an incubator (37 °C, 5% CO2) for 12 hrs, and a control group (120 mJ/cm^2 + vehicle control), a low concentration group (120 mJ/cm^2 + low concentration compound), a medium concentration group (120 mJ/cm^2 + medium concentration compound), and a high concentration group (120 mJ/cm^2 + high concentration compound) were respectively provided. • 2) UVB modeling: The HaCaT cells were washed 3 times with D'Hanks before UVB radiation, 50 µL of D'Hanks was added into the wells, to make the cells to be immersed, and the control group was coated with tinfoil and placed in the dark. For the test groups, UVB modeling was performed on the group requiring radiation, respectively. • 3) Administration: DMEM medium containing different concentrations of compound were added to each test group for continued culture for 24 hrs. • 4) Transferring the ROS fluorescent probe: DCFH-DA was Diluted to a final concentration of 10 µmol/L using PBS at a dilution ratio of 1:1000. The culture medium in all wells except the bare cell wells was discarded. After washing three times with PBS, 200 µL of DCFH-DA working solution was added to each well, then incubated in a CO2 incubator for 30 min, and after incubation, the cells in each well were washed with PBS for 3 times. • 5) Fluorescence analysis. The 96-well plate to be tested was placed on the detection stage of the fluorescence microplate reader, with the […] set to 525 nm, the excitation light wavelength set to 488 nm, and the reading was analyzed.
ROS scavenging rate (%) = (S(Modelcontrolgroup)−S(Samplegroup))/(S(Modelcontrolgroup)) × 100% [formula] wherein S is fluorescence intensity.

Series [1] is described as follows: Kinetic solubility in aqueous buffer. The class given is physicochemical. As to conditions: 2 hrs at 25 °C. As to the method:
Experimental Methods: 30 µL of the 10 mM DMSO stock solution of the compound to be test was placed in a solubility sample plate (duplicate), 970 µL of aqueous buffer solution was added to the plate, and the plate was sealed with a sealing membrane and shaken at 1100 rpm for 2 hrs at 25 °C. The sample in the solubility plate was transferred to a filter plate, and filtered to obtain a filtrate. 10 µL of the filtrate was transferred into 980 µL of methanol along with 10 µL of DMSO, and then the solution was diluted 10-fold with methanol:water (1:1), and the resulting sample was analyzed by LC-MS/MS to obtain Area (filtered). Separately, 10 mM of the DMSO stock solution of the compound to be test was diluted to 300 µM with DMSO. 10 µL of this 300 µM DMSO solution and 10 µL of aqueous buffer solution were added into 980 µL of methanol, and then diluted 10-fold with methanol:water (1:1), and the resulting sample was analyzed by LC-MS/MS to obtain Area (std). The kinetic solubility was calculated according to the following formula: Solubility(μM) = (Areafiltered × DFfiltered)/(Areastd × DFstd) × [std] × DFstd [formula] wherein DF is the dilution factor.

With `CC(C)C(=O)Oc1ccc2c(c1)OS(=O)(=O)c1cc(OC(=O)C(C)C)ccc1-2` [Compound I-14], the ROS scavenging rate with HaCaT cells worked out at 29%.
As to `O=c1oc2cc(O)ccc2c2ccc(O)cc12` [Urolithin A, reference compound], in series [1], the kinetic solubility (as a rule, the concentration staying in solution when a stock, usually in DMSO, is diluted into the medium) at 2 h amounted to 98.8 µM (≈ 22.5 µg/mL).
As for `CN(C)C(=O)Oc1ccc2c(c1)OS(=O)(=O)c1cc(OC(=O)N(C)C)ccc1-2` [Compound I-13], the ROS scavenging rate in the series on HaCaT cells amounted to 35%.
